Results reported in patent publication US20180244699A1, “1-HYDROXY-3H-2,1-BENZOXABOROLE DERIVATIVES AND THEIR USE AS MICROBIOCIDES” (Syngenta Participations AG, priority 2015, published 2018).

Key:
[1] = system: Glomerella lagenarium (Colletotrichum lagenarium); experiment: Glomerella lagenarium (Colletotrichum lagenarium) / liquid culture (anthracnose); type: cell-based; conditions: Colletotrichum orbiculare, growth inhibition photometrically 3-4 days after application, compared to untreated control
Description: 3. Glomerella lagenarium (Colletotrichum lagenarium)/Liquid Culture (Anthracnose) Conidia of the fungus from cryogenic storage are directly mixed into nutrient broth (PDB potato dextrose broth). After placing a (DMSO) solution of test compound into a microtiter plate (96-well format), the nutrient broth containing the fungal spores is added. The test plates are incubated at 24° C. and the inhibition of growth is measured photometrically 3-4 days after application.

Gaeumannomyces graminis = Gaeumannomyces graminis / liquid culture (take-all of cereals); type: cell-based; conditions: growth inhibition photometrically 4-5 days after application, compared to untreated control
Description: (§1) 6. Gaeumannomyces Graminis/Liquid Culture (Take-all of Cereals) Mycelial fragments of the fungus from cryogenic storage were directly mixed into nutrient broth (PDB potato dextrose broth). After placing a (DMSO) solution of test compound into a microtiter plate (96-well format), the nutrient broth containing the fungal spores is added. The test plates are incubated at 24° C. and the inhibition of growth is determined photometrically 4-5 days after application.

[2] = system: Monographella nivalis (Microdochium nivale); experiment: Monographella nivalis (Microdochium nivale) / liquid culture (foot rot cereals); type: cell-based; conditions: growth inhibition photometrically 4-5 days after application, compared to untreated control
Description: as §1, with “8. Monographella nivalis (Microdochium nivale)/Liquid” for “6. Gaeumannomyces Graminis/Liquid”, “(Foot Rot” for “(Take-all of”, “Conidia” for “Mycelial fragments”, “are” for “were”

[3] = system: Mycosphaerella arachidis (Cercospora arachidicola); experiment: Mycosphaerella arachidis (Cercospora arachidicola) / liquid culture (early leaf spot); type: cell-based; conditions: growth inhibition photometrically 4-5 days after application, compared to untreated control
Description: as §1, with “9. Mycosphaerella arachidis (Cercospora arachidicola)/Liquid” for “6. Gaeumannomyces Graminis/Liquid”, “(Early Leaf Spot) Conidia” for “(Take-all of Cereals) Mycelial fragments”, “are” for “were”

Pythium ultimum = Pythium ultimum / liquid culture (seedling damping off); type: cell-based; conditions: Globisporangium ultimum, growth inhibition photometrically 2-3 days after application, compared to untreated control
Procedure, shortened: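 Fungal mycelia fragments and oospores from fresh liquid culture mixed into potato dextrose broth and added to DMSO solutions of test compound. Incubated at 24° C.; growth inhibition read photometrically 2-3 days after application.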

[4] = system: Thanatephorus cucumeris (Rhizoctonia solani); experiment: Thanatephorus cucumeris (Rhizoctonia solani) / liquid culture (foot rot, damping-off); type: cell-based; conditions: growth inhibition photometrically 3-4 days after application, compared to untreated control
Description: 16. Thanatephorus cucumeris (Rhizoctonia solani)/Liquid Culture (Foot Rot, Damping-Off) Mycelia fragments of a newly grown liquid culture of the fungus are directly mixed into nutrient broth (PDB potato dextrose broth). After placing a (DMSO) solution of the test compounds into a microtiter plate (96-well format), the nutrient broth containing the fungal material is added. The test plates are incubated at 24° C. and the inhibition of growth is determined photometrically 3-4 days after application.

Sclerotinia sclerotiorum = Sclerotinia sclerotiorum / liquid culture (cottony rot); type: cell-based; conditions: growth inhibition photometrically 3-4 days after application, compared to untreated control
Description: 17. Sclerotinia sclerotiorum/Liquid Culture (Cottony Rot) Mycelia fragments of a newly grown liquid culture of the fungus are directly mixed into nutrient broth (PDB potato dextrose broth). After placing a (DMSO) solution of test compound into a microtiter plate (96-well format) the nutrient broth containing the fungal material is added. The test plates are incubated at 24° C. and the inhibition of growth is determined photometrically 3-4 days after application.

[5] = system: Mycosphaerella graminicola (Septoria tritici); experiment: Mycosphaerella graminicola (Septoria tritici) / liquid culture (Septoria blotch); type: cell-based; conditions: Zymoseptoria tritici, growth inhibition photometrically 4-5 days after application, compared to untreated control
Description: as §1, with “18. Mycosphaerella graminicola (Septoria tritici)/Liquid” for “6. Gaeumannomyces Graminis/Liquid”, “(Septoria Blotch) Conidia” for “(Take-all of Cereals) Mycelial fragments”, “are” for “were”

[6] = system: Puccinia recondite f. sp. tritici; experiment: Puccinia recondite f. sp. tritici / wheat / leaf disc preventative (brown rust); type: in vivo; conditions: foliar, wheat leaf segments, inoculated 1 day after application, compared to untreated control
Description: 13. Puccinia recondite f. Sp. Tritici/Wheat/Leaf Disc Preventative (Brown Rust) Wheat leaf segments cv. Kanzler are placed on agar in multiwell plates (24-well format) and sprayed with the formulated test compound diluted in water. The leaf disks are inoculated with a spore suspension of the fungus 1 day after application. The inoculated leaf segments are incubated at 19° C. and 75% rh under a light regime of 12 h light/12 h darkness in a climate cabinet and the activity of a compound is assessed as percent disease control compared to untreated when an appropriate level of disease damage appears in untreated check leaf segments (7-9 days after application).

Phytophthora infestans = experiment: whole plant or invertebrate; type: in vivo; conditions: in Solanum lycopersicum, foliar, read-out: control of Phytophthora infestans

CCOc1c(C(=O)OC)ccc2c1B(O)OC2 [Compound 4, methyl 7-ethoxy-1-hydroxy-3H-2,1-benzoxaborole-6-carboxylate]
≥ 80%: inhibition of growth at 20 ppm [1] | inhibition of growth at 20 ppm (Gaeumannomyces graminis) | inhibition of growth at 20 ppm [2] | inhibition of growth at 20 ppm [3] | inhibition of growth at 20 ppm (Pythium ultimum) | inhibition of growth at 20 ppm [4] | inhibition of growth at 20 ppm (Sclerotinia sclerotiorum) | inhibition of growth at 20 ppm [5]

COc1c(C(=O)NCc2ccccc2F)ccc2c1B(O)OC2 [Compound 5, N-[(2-fluorophenyl)methyl]-1-hydroxy-7-methoxy-3H-2,1-benzoxaborole-6-carboxamide]
≥ 80%: pest or weed control at 200 ppm [6] | inhibition of growth at 20 ppm (Pythium ultimum)

COc1c(C(=O)NCc2ccc(Cl)cc2)ccc2c1B(O)OC2 [Compound 6, N-[(4-chlorophenyl)methyl]-1-hydroxy-7-methoxy-3H-2,1-benzoxaborole-6-carboxamide]
≥ 80%: inhibition of growth at 20 ppm (Gaeumannomyces graminis) | inhibition of growth at 20 ppm [2] | pest or weed control at 200 ppm [6] | inhibition of growth at 20 ppm (Pythium ultimum)

CNC(=O)c1ccc2c(c1OC)B(O)OC2 [Compound 8, 1-hydroxy-7-methoxy-N-methyl-3H-2,1-benzoxaborole-6-carboxamide]
≥ 80%: inhibition of growth at 20 ppm [3] | pest or weed control at 200 ppm [6] | inhibition of growth at 20 ppm (Pythium ultimum)

COc1c(C(=O)OCC(F)F)ccc2c1B(O)OC2 [Compound 12, 2,2-difluoroethyl 1-hydroxy-7-methoxy-3H-2,1-benzoxaborole-6-carboxylate]
≥ 80%: inhibition of growth at 20 ppm [1] | inhibition of growth at 20 ppm (Gaeumannomyces graminis) | inhibition of growth at 20 ppm [2] | pest or weed control at 200 ppm (Phytophthora infestans) | inhibition of growth at 20 ppm (Pythium ultimum) | inhibition of growth at 20 ppm [5]

COC(=O)c1ccc2c(c1OC(F)F)B(O)OC2 [Compound 16, methyl 7-(difluoromethoxy)-1-hydroxy-3H-2,1-benzoxaborole-6-carboxylate]
≥ 80%: inhibition of growth at 20 ppm (Gaeumannomyces graminis) | inhibition of growth at 20 ppm [3] | inhibition of growth at 20 ppm (Pythium ultimum) | inhibition of growth at 20 ppm (Sclerotinia sclerotiorum)

COc1c(C(=O)NCCc2ccccc2)ccc2c1B(O)OC2 [Compound 33, 1-hydroxy-7-methoxy-N-phenethyl-3H-2,1-benzoxaborole-6-carboxamide]
≥ 80%: inhibition of growth at 20 ppm [2] | pest or weed control at 200 ppm [6]

COc1c(C(=O)NC(C)C)ccc2c1B(O)OC2 [Compound 34, 1-hydroxy-N-isopropyl-7-methoxy-3H-2,1-benzoxaborole-6-carboxamide]
≥ 80%: pest or weed control at 200 ppm [6] | inhibition of growth at 20 ppm (Pythium ultimum)

COc1c(C(=O)Nc2cnoc2)ccc2c1B(O)OC2 [Compound 35, 1-hydroxy-N-isoxazol-4-yl-7-methoxy-3H-2,1-benzoxaborole-6-carboxamide]
≥ 80%: pest or weed control at 200 ppm [6] | inhibition of growth at 20 ppm (Pythium ultimum)

COc1c(C(=O)Nc2nnc(C(F)(F)F)s2)ccc2c1B(O)OC2 [Compound 64, 1-hydroxy-7-methoxy-N-[5-(trifluoromethyl)-1,3,4-thiadiazol-2-yl]-3H-2,1-benzoxaborole-6-carboxamide]
≥ 80%: inhibition of growth at 20 ppm [1] | inhibition of growth at 20 ppm (Gaeumannomyces graminis) | inhibition of growth at 20 ppm [2] | inhibition of growth at 20 ppm (Pythium ultimum) | inhibition of growth at 20 ppm (Sclerotinia sclerotiorum)

COC(=O)C#CCOC(=O)c1ccc2c(c1OC)B(O)OC2 [Compound 79, (4-methoxy-4-oxo-but-2-ynyl) 1-hydroxy-7-methoxy-3H-2,1-benzoxaborole-6-carboxylate]
≥ 80%: inhibition of growth at 20 ppm [1] | inhibition of growth at 20 ppm (Gaeumannomyces graminis) | inhibition of growth at 20 ppm [2] | inhibition of growth at 20 ppm [3] | inhibition of growth at 20 ppm (Pythium ultimum) | inhibition of growth at 20 ppm [4] | inhibition of growth at 20 ppm (Sclerotinia sclerotiorum) | inhibition of growth at 20 ppm [5]

COc1c(C(=O)OCCc2scnc2C)ccc2c1B(O)OC2 [Compound 84, 2-(4-methylthiazol-5-yl)ethyl 1-hydroxy-7-methoxy-3H-2,1-benzoxaborole-6-carboxylate]
≥ 80%: inhibition of growth at 20 ppm [1] | inhibition of growth at 20 ppm (Gaeumannomyces graminis) | inhibition of growth at 20 ppm [2] | inhibition of growth at 20 ppm [3] | inhibition of growth at 20 ppm (Pythium ultimum)

CCN(CC)C(=O)COC(=O)c1ccc2c(c1OC)B(O)OC2 [Compound 94, [2-(diethylamino)-2-oxo-ethyl] 1-hydroxy-7-methoxy-3H-2,1-benzoxaborole-6-carboxylate]
≥ 80%: inhibition of growth at 20 ppm [1] | inhibition of growth at 20 ppm (Gaeumannomyces graminis) | inhibition of growth at 20 ppm [2] | inhibition of growth at 20 ppm [3] | inhibition of growth at 20 ppm (Pythium ultimum) | inhibition of growth at 20 ppm [4] | inhibition of growth at 20 ppm (Sclerotinia sclerotiorum) | inhibition of growth at 20 ppm [5]

CCC1=NC(C)(COC(=O)c2ccc3c(c2OC)B(O)OC3)CO1 (centres unmarked) [Compound 99, (2-ethyl-4-methyl-5H-oxazol-4-yl)methyl 1-hydroxy-7-methoxy-3H-2,1-benzoxaborole-6-carboxylate]
≥ 80%: inhibition of growth at 20 ppm [1] | inhibition of growth at 20 ppm (Gaeumannomyces graminis) | inhibition of growth at 20 ppm [2] | inhibition of growth at 20 ppm [3] | inhibition of growth at 20 ppm (Pythium ultimum) | inhibition of growth at 20 ppm [4] | inhibition of growth at 20 ppm (Sclerotinia sclerotiorum) | inhibition of growth at 20 ppm [5]

COc1c(C(=O)OCn2nc(C)cc2C)ccc2c1B(O)OC2 [Compound 103, (3,5-dimethylpyrazol-1-yl)methyl 1-hydroxy-7-methoxy-3H-2,1-benzoxaborole-6-carboxylate]
≥ 80%: inhibition of growth at 20 ppm (Gaeumannomyces graminis) | pest or weed control at 200 ppm (Phytophthora infestans) | inhibition of growth at 20 ppm (Pythium ultimum)

CC#CCCOC(=O)c1ccc2c(c1OC)B(O)OC2 [Compound 105, pent-3-ynyl 1-hydroxy-7-methoxy-3H-2,1-benzoxaborole-6-carboxylate]
≥ 80%: inhibition of growth at 20 ppm [1] | inhibition of growth at 20 ppm (Gaeumannomyces graminis) | inhibition of growth at 20 ppm [2] | inhibition of growth at 20 ppm [3] | inhibition of growth at 20 ppm (Pythium ultimum) | inhibition of growth at 20 ppm [5]

COc1c(C(=O)OCCOC(C)C)ccc2c1B(O)OC2 [Compound 109, 2-isopropoxyethyl 1-hydroxy-7-methoxy-3H-2,1-benzoxaborole-6-carboxylate]
≥ 80%: inhibition of growth at 20 ppm (Gaeumannomyces graminis) | inhibition of growth at 20 ppm [2] | pest or weed control at 200 ppm (Phytophthora infestans) | inhibition of growth at 20 ppm (Pythium ultimum)

COc1c(C(=O)OCCc2ccccc2)ccc2c1B(O)OC2 [Compound 110, phenethyl 1-hydroxy-7-methoxy-3H-2,1-benzoxaborole-6-carboxylate]
≥ 80%: inhibition of growth at 20 ppm [1] | inhibition of growth at 20 ppm (Gaeumannomyces graminis) | inhibition of growth at 20 ppm [2] | inhibition of growth at 20 ppm [3] | inhibition of growth at 20 ppm (Pythium ultimum) | inhibition of growth at 20 ppm [5]

COc1c(C(=O)OCC#Cc2ccccc2)ccc2c1B(O)OC2 [Compound 132, 3-phenylprop-2-ynyl 1-hydroxy-7-methoxy-3H-2,1-benzoxaborole-6-carboxylate]
≥ 80%: inhibition of growth at 20 ppm [1] | inhibition of growth at 20 ppm (Gaeumannomyces graminis) | inhibition of growth at 20 ppm [2] | pest or weed control at 200 ppm [6] | inhibition of growth at 20 ppm (Pythium ultimum) | inhibition of growth at 20 ppm [5]
